Values quoted from earlier work, collected in US6703044B1, “Venlafaxine formulations” (priority 2002, dated 2004).
Where a name gives a salt, the structure may show the parent alone.

Settings: plural daily dosing regimen

In the case of COc1ccc(C(CN(C)C)C2(O)CCCCC2)cc1 (centres unmarked) [venlafaxine hydrochloride, 1-[(2-dimethylamino)-1-(4-methoxyphenyl)ethyl] cyclohexanol], the patients experiencing nausea is given as “about forty five” and the “patients in whom vomiting occurs” value is given as “about seventeen”.
